Where a name gives a salt, the structure may show the parent alone.
These molecules were tested on mice (stretching and twisting provoked by intraperitoneal injection of acetic acid) (assay: Analgesic Activity: acetic acid-induced stretching test in mice (based on Koster et al)). Conditions: Mus musculus, fasted 24 hours, test product oral 30 minutes before i.p. acetic acid (60 mg/kg), stretchings counted during 15 minutes after injection, read-out: AD50 (dose which reduced by 50% the number of stretching as compared to the controls).
Type: in vivo
Experimental: The test was based on that of Koster et al [Fed. Proc., Vol. 18 (1959) p. 412] wherein the intraperitoneal injection of acetic acid provokes in mice repeated stretching and twisting which persists for more than 6 hours and an analgesic prevents or suppresses this syndrom which is considered to be the exteriorization of a diffuse abdominal pain. A solution of 0.6% acetic acid in water containing 10% of arabic gum is used and the dose which causes the syndrom under these conditions is 0.01 ml/g or 60 mg/kg of acetic acid. The test products were orally administered 30 minutes before the intraperitoneal injection of acetic acid and the mice were fasted for 24 hours before the test.
For each dose and for the controls required in each test, groups of 5 mice were used and the stretchings were observed and counted for each mouse and added for each group, during a period of 15 minutes right after the injection. The AD50 or dose which reduced by 50% the number of stretching as compared to the controls was determined.
O=C(OCCN1CCN(c2cccc(C(F)(F)F)c2)CC1)c1sccc1Nc1ccnc2c(C(F)(F)F)cccc12 [Example 1, 2-[4-(3-trifluoromethylphenyl)-1-piperazinyl]-ethyl 3-[8-trifluoromethyl-4-quinolylamino]-2-thiophene-carboxylate dihydrochloride] showed an ED50 of 20 mg/kg.
Work on O=C(OCCN1CCN(c2ccc(Cl)cc2)CC1)c1sccc1Nc1ccnc2c(C(F)(F)F)cccc12 [Example 2, 2-[4-(4-chlorophenyl)-1-piperazinyl]-ethyl 3-(8-trifluoromethyl-4-quinolylamino)-2-thiophene-carboxylate] yielded an ED50 of 15 mg/kg.
For O=C(OCCN1CCN(c2cccc(C(F)(F)F)c2)CC1)c1sccc1Nc1ccnc2cc(Cl)ccc12 [Example 3, 2-[4-(3-trifluoromethylphenyl)-1-piperazinyl]-ethyl 3-(7-chloro-4-quinolylamino)-2-thiophene-carboxylate], the ED50 was 20 mg/kg.
